Like-named read-outs stand apart in the source and are kept apart here.
What was measured:
EA.hy926 cells [1] = experiment: Alamar Blue cytotoxicity assay on EA.hy926 cells; type: cell-based, human; conditions: for IC50: Homo sapiens, read-out: IC50 EA.hy926; for Selectivity Index SIa: SIa = IC50 BJ/IC50 EA.hy296
Source text: (§1) A human endothelial hybrid cell line (EA.hy926) (passage number 10–15), human hepatocellular carcinoma (HepG2) cells (passage number 10–15), and normal foreskin fibroblasts (BJ) (passage number 5–10) were used in the present study. All cell lines were purchased from ATCC (Manassas, United States of America). EA.hy926 cells were maintained in DMEM with high glucose supplemented with 1% sodium pyruvate, while the BJ cells were maintained in DMEM with low glucose concentration. HepG2 cells were cultured in MEM. All media were supplemented with 10% fetal bovine serum (FBS) and 1% penicillin/streptomycin. All cell lines were cultured at 37 °C in an incubator with 5% CO2 supplementation and cellular media were refreshed every other day. Once the cells reached a confluency of 80–90%, they were either subcultured or used in experiments.
(§2) The synthesized compounds’ cytotoxicity was evaluated using the Alamar Blue (AB) assay as previously described. The metabolically active cell-dependent conversion of non-fluorescent resazurin to the highly fluorescent resorufin compound is quantified spectrophotometrically at λexcitation = 530/25; λemission = 590/35, using a Synergy 2 Multi-Mode microplate reader. Briefly, a total of 5 x 10^3 EA.hy926 and BJ cells and 1 x 10^4 HepG2 cells were seeded in 100 µL in 96 well plates. The cells were left to attach overnight. […] At 48 h post-stimulation, the media were removed, and the AB assay was performed. The reported range of concentrations for each compound was obtained by employing the up-and-down method.
(§3) The experiments were conducted in three biological replicates, each one including 6 technical replicates. Cells exposed to culture media with 0.2% DMSO served as negative control (NC) and were used for data normalization (100%). The 50% Inhibitory Concentration (IC50) values were determined based on the dose–response curves obtained by fitting the experimental data with a 4-parameter logistic curve in SigmaPlot 11 software.

HepG2 cells = experiment: Alamar Blue cytotoxicity assay on HepG2 cells; type: cell-based, human; conditions: for IC50: Homo sapiens, read-out: IC50 HepG2; for Selectivity Index SIb: SIb = IC50 BJ/IC50 HepG2
Source text: as §1, §2, §3

BJ cells = experiment: Alamar Blue cytotoxicity assay on BJ cells; type: cell-based; conditions: Homo sapiens, 48 h exposure, normal foreskin fibroblasts
Source text: as §1, §2, §3

EA.hy926 cells [2] = experiment: Wound healing (scratch) assay; type: cell-based, human; conditions: 12 h
Procedure: EA.hy926 cells were seeded in 12-well plates and incubated for 24 h until confluency was reached. The medium was removed and a scratch in the cell monolayer was manually added with a sterile pipette tip. Subsequently, the cells were gently washed two times with DPBS to remove the detached cells. […] Images were captured at the time of exposure (T0) and 12 h post-exposure (T12). The rate of cell migration was determined by calculating the wound healing percentage (%) according to the formula (AT0 – AT12)/ AT0*100 previously reported. The scratch area at the initial time of exposure (AT0) and after 12 h (AT12), expressed as square pixels (Px^2), were determined using the IKOSA Prisma Application Wound Healing (Scratch) assay (v2.2.0).

[3] = test system: chorioallantoic membrane (CAM) of chicken eggs; experiment: Chorioallantoic egg membrane (CAM) assay; type: in vivo; conditions: for peak number of vascular branching points from day 3, fold lower than control sample: day 3 vs control (0.2% DMSO); for reduction in vascular branching on day 4 compared to day 3: day 4 vs day 3; for reduction in the number of vascular branching points on day 5 compared to day 5 of the control sample: day 5 vs control (0.2% DMSO); for reduction in vascular branching on day 5 compared to day 3: day 5 vs day 3
Procedure: To assess the anti-angiogenic effects, a biological model represented by the chorioallantoic membrane (CAM) of chicken eggs was employed. […] The experimental procedure involved the following steps: (I) initial cleaning with 70% alcohol solution and incubation of the eggs at a constant humidity (45%) and temperature (37.5 °C) on the first day; (II) on the third day of embryonic development (EDD3), a small hole at the egg tip was created and approximately 5–7 mL of albumen were extracted to facilitate detachment of the chorioallantoic membrane from the inner shell; and (III) on EDD4, a window was created at the egg’s top to visualize the vascular plexus, covering it with adhesive tape, and returning the egg to the incubator until the experiment’s commencement.
The assessment of anti-angiogenic impact began on the sixth day of embryonic development and extended over five days. To achieve this, a silicon ring was applied to the CAM, and 10 μL of the tested compounds was administered daily within the ring. The evaluation of angiogenesis involved daily photographic documentation of the vascular plexus using a Discovery v.8 stereomicroscope, a Zeiss Axio CAM 105 color camera, and ZEN core 3.8 software. […] The quantitative evaluation of vessel numbers branching points and total vessel area was performed using the IKOSA Prism Application CAM assay (v3.1.0).

[4] = Solubility observed in the cellular media; type: physicochemical; conditions: plasma or biological fluid, read-out: concentrations at which limited solubility in the cellular media was observed
[5] = EA.hy 926, 48 h exposure, Alamar Blue
[6] = HepG2, 48 h exposure, Alamar Blue

Row | SMILES | IC50 (EA.hy926 cells [1]; [5]) [µM] | Selectivity Index SIa (EA.hy926 cells [1]) | IC50 (HepG2 cells; [6]) [µM] | Selectivity Index SIb (HepG2 cells) | IC50 (BJ cells) [µM] | melting point [°C] | also measured
1 | COc1cc2ncnc(Oc3ccc(/C=N/Nc4nc(-c5ccc(Cl)cc5)cs4)cc3)c2cc1OC [SA03, (E)-2-(2-(4-((6,7-dimethoxyquinazolin-4-yl)oxy)benzylidene)hydrazineyl)-4-(4-chlorophenyl)-thiazole] | 0.79 | 3.59 | 4.24 | 0.67 | 2.84 | 231 to 232 | fold higher activity compared to sorafenib (EA.hy926 cells [1]; EA.hy926 cells): 8.3 fold
2 | COc1cc2ncnc(Oc3ccc(/C=N/Nc4nc(-c5ccc(C#N)cc5)cs4)cc3)c2cc1OC [SA05, (E)-2-(2-(4-((6,7-dimethoxyquinazolin-4-yl)oxy)benzylidene)hydrazineyl)-4-(4-benzonitrile)thiazole] | 1.4 | 1.91 | 1.83 | 1.46 | 2.67 | – | fold higher activity compared to sorafenib (HepG2 cells; HepG2 cells): 3.5 fold; Wound heal (%) (EA.hy926 cells [2]; 0.75 μM): 66.41%; Wound heal (%) (EA.hy926 cells [2]; 1 μM): 62.45%; Wound heal (%) (EA.hy926 cells [2]; 1.25 μM): 61.52%; Wound heal (%) (EA.hy926 cells [2]; 1.5 μM): 54.42%; peak number of vascular branching points from day 3, fold lower than control sample [3]: 1.18 fold; reduction in vascular branching on day 4 compared to day 3 [3]: 16%; reduction in the number of vascular branching points on day 5 compared to day 5 of the control sample [3]: 42%; reduction in vascular branching on day 5 compared to day 3 [3]: 39%
3 | COc1cc2ncnc(Oc3ccc(/C=N/Nc4nc(-c5ccc(C(F)(F)F)cc5)cs4)cc3)c2cc1OC [SA04, (E)-2-(2-(4-((6,7-dimethoxyquinazolin-4-yl)oxy)benzylidene)hydrazineyl)-4-(4-(trifluoromethyl)-phenyl)thiazole] | 0.98 | 6.93 | 2.72 | 2.50 | 6.79 | 237 to 238 | Wound heal (%) (EA.hy926 cells [2]; 0.25 μM): 63.45%; Wound heal (%) (EA.hy926 cells [2]; 0.5 μM): 46.99%; Wound heal (%) (EA.hy926 cells [2]; 0.75 μM): 46.83%; Wound heal (%) (EA.hy926 cells [2]; 1 μM): 43.87%; peak number of vascular branching points from day 3, fold lower than control sample [3]: 1.3 fold; reduction in vascular branching on day 4 compared to day 3 [3]: 47%; reduction in the number of vascular branching points on day 5 compared to day 5 of the control sample [3]: 67%; reduction in vascular branching on day 5 compared to day 3 [3]: 60%
4 | COc1cc2ncnc(Oc3ccc(/C=N/Nc4nc(-c5ccc(F)cc5)cs4)cc3)c2cc1OC [SA02, (E)-2-(2-(4-((6,7-dimethoxyquinazolin-4-yl)oxy)benzylidene)hydrazineyl)-4-(4-fluorophenyl)-thiazole] | 0.93 | 2.53 | 2.34 | 1.00 | 2.35 | 242 to 243 | –
5 | COc1cc2ncnc(Oc3ccc(/C=N/Nc4nc(-c5ccc(O)c(C(N)=O)c5)cs4)cc3)c2cc1OC [SA07, (E)-5-(2-(2-(4-((6,7-dimethoxyquinazolin-4-yl)oxy)benzylidene)hydrazineyl)thiazol-4-yl)-2-hydroxy-benzamide] | 5.85 | 4.06 | 27.3 | 0.87 | 23.8 | 246 to 247 | –
6 | COc1cc2ncnc(Oc3ccc(/C=N/Nc4nc(C)cs4)cc3)c2cc1OC [SA06, (E)-2-(2-(4-((6,7-dimethoxyquinazolin-4-yl)-oxy)-benzylidene-)hydrazineyl)-4-methyl-thiazole] | > 10 | – | > 100 | – | > 100 | – | solubility [4]: > 5 µM
7 | COc1ccc(-c2csc(N/N=C/c3ccc(Oc4ncnc5cc(OC)c(OC)cc45)cc3)n2)cc1 [SA01, (E)-2-(2-(4-((6,7-dimethoxyquinazolin-4-yl)oxy)-benzylidene)hydrazineyl)-4-(4-methoxyphenyl)-thiazole] | 3.64 | 9.96 | 31.2 | 1.16 | 36.2 | 230 | –
8 | CNC(=O)c1cc(Oc2ccc(NC(=O)Nc3ccc(Cl)c(C(F)(F)F)c3)cc2)ccn1 [Sorafenib, sorafenib, reference compound] | – | – | – | – | 13.2 | – | IC50 (EA.hy926 cells [1]; EA.hy 926, 48 h): 6.62 µM; IC50 (HepG2 cells; HepG2, 48 h): 6.28 µM; Wound heal (%) (EA.hy926 cells [2]; 1.25 μM): 70.54%; Wound heal (%) (EA.hy926 cells [2]; 2.5 μM): 37.99%; Wound heal (%) (EA.hy926 cells [2]; 5 μM): 18.88%
